Assay results taken from ChEMBL document CHEMBL1201862, “PubChem BioAssay data set” (2004).
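The compound was tested at five concentrations on cells cultured in 96-well plates, with a 48-hour exposure period. Here, GI50 denotes the concentration required for 50% inhibition of growth.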 The source made the active and inactive calls. Cut-off read from the data, not from the text of the source: active = GI50 up to about 1.1 µM and inactive = higher.

Assays:
Assay in all cases: NCI tumour cell line growth inhibition, 48 h
[1] = test system: MCF7
[2] = test system: HCC 2998
[3] = test system: HL-60
[4] = test system: CAKI-1
[5] = test system: NCI-H460
[6] = test system: T47D
[7] = test system: ACHN
[8] = test system: BT-549
[9] = test system: CCRF-CEM
[10] = test system: UACC-62
[11] = test system: MDA-N
[12] = test system: OVCAR-5
[13] = test system: SNB-19
[14] = test system: DU-145
[15] = test system: SK-MEL-2
[16] = test system: HOP-62
[17] = test system: LOX IMVI
[18] = test system: MDA-MB-435
[19] = test system: IGROV-1
[20] = test system: OVCAR-3
[21] = test system: SN12C
[22] = test system: KM12
[23] = test system: M14
[24] = test system: Malme-3M
[25] = test system: NCI-H23
[26] = test system: SK-MEL-5
[27] = test system: K562
[28] = test system: NCI-H522
[29] = test system: UACC-257
[30] = test system: NCI/ADR-RES
[31] = test system: A549
[32] = test system: Hs-578T
[33] = test system: SK-MEL-28
[34] = test system: COLO 205
[35] = test system: HCT-116
[36] = test system: SW-620
[37] = test system: MOLT-4
[38] = test system: MDA-MB-231
[39] = test system: SF-295
[40] = test system: TK-10
[41] = test system: RXF 393
[42] = test system: PC-3
[43] = test system: EKVX
[44] = test system: OVCAR-8
[45] = test system: OVCAR-4
[46] = test system: SR
[47] = test system: HOP-92
[48] = test system: SK-OV-3
[49] = test system: HT-29
[50] = test system: UO-31
[51] = test system: U-251
[52] = test system: NCI-H226
[53] = test system: RPMI-8226
[54] = test system: SNB-75
[55] = test system: SF-268
[56] = test system: 786-0
[57] = test system: HCT-15
[58] = test system: SF-539

In the case of `COc1ccc(-c2cc3c(c4cc(OC)ccc24)C(=O)OC3=O)cc1`, the GI50 [1] is reported as > 100 µM (inactive), the GI50 [2] is reported as > 100 µM (inactive) and the GI50 [3] is reported as > 100 µM (inactive). For the same compound, the GI50 [4] was > 100 µM (inactive), the GI50 [5] was > 100 µM (inactive) and the GI50 [6] was > 100 µM (inactive). For the same compound, the GI50 [7] was > 100 µM (inactive), the GI50 [8] was > 100 µM (inactive) and the GI50 [9] was > 100 µM (inactive). The GI50 [10] was > 100 µM (inactive), the GI50 [11] was 86.5 µM (inactive) and the GI50 [12] was > 100 µM (inactive). The GI50 [13] was > 100 µM (inactive), the GI50 [14] was > 100 µM (inactive) and the GI50 [15] was > 100 µM (inactive). For the same compound, the GI50 [16] was > 100 µM (inactive), the GI50 [17] was > 100 µM (inactive) and the GI50 [18] was 68.4 µM (inactive). The GI50 [19] was > 100 µM (inactive), the GI50 [20] was > 100 µM (inactive) and the GI50 [21] was > 100 µM (inactive). The GI50 [22] was > 100 µM (inactive), the GI50 [23] was > 100 µM (inactive) and the GI50 [24] was > 100 µM (inactive). The GI50 [25] was > 100 µM (inactive), the GI50 [26] was > 100 µM (inactive) and the GI50 [27] was > 100 µM (inactive). For the same compound, the GI50 [28] was > 100 µM (inactive), the GI50 [29] was > 100 µM (inactive) and the GI50 [30] was > 100 µM (inactive). For the same compound, the GI50 [31] was > 100 µM (inactive), the GI50 [32] was > 100 µM (inactive) and the GI50 [33] was > 100 µM (inactive). The GI50 [34] was > 100 µM (inactive), the GI50 [35] was > 100 µM (inactive) and the GI50 [36] was > 100 µM (inactive). For the same compound, the GI50 [37] was > 100 µM (inactive), the GI50 [38] was > 100 µM (inactive) and the GI50 [39] was > 100 µM (inactive). For the same compound, the GI50 [40] was > 100 µM (inactive), the GI50 [41] was > 100 µM (inactive) and the GI50 [42] was > 100 µM (inactive). For the same compound, the GI50 [43] was > 100 µM (inactive), the GI50 [44] was > 100 µM (inactive) and the GI50 [45] was > 100 µM (inactive). For the same compound, the GI50 [46] was > 100 µM (inactive), the GI50 [47] was 87.3 µM (inactive) and the GI50 [48] was > 100 µM (inactive). For the same compound, the GI50 [49] was > 100 µM (inactive), the GI50 [50] was 95.5 µM (inactive) and the GI50 [51] was > 100 µM (inactive). For the same compound, the GI50 [52] was > 100 µM (inactive), the GI50 [53] was > 100 µM (inactive) and the GI50 [54] was 68.1 µM (inactive). The GI50 [55] was > 100 µM (inactive), the GI50 [56] was > 100 µM (inactive) and the GI50 [57] was > 100 µM.

With `c1ccc(-c2sc(-c3cccs3)cc2Cc2cccs2)cc1` the GI50 [1] was > 10 µM (inactive), the GI50 [2] was > 10 µM (inactive) and the GI50 [3] was > 10 µM (inactive). The GI50 [4] was > 10 µM (inactive), the GI50 [5] was > 10 µM (inactive) and the GI50 [6] was > 10 µM (inactive). The GI50 [7] was > 10 µM (inactive), the GI50 [8] was > 10 µM (inactive) and the GI50 [9] was > 10 µM (inactive). For the same compound, the GI50 [10] was > 10 µM (inactive), the GI50 [11] was > 10 µM (inactive) and the GI50 [13] was > 10 µM (inactive). The GI50 [14] was > 10 µM (inactive), the GI50 [16] was > 10 µM (inactive) and the GI50 [17] was > 10 µM (inactive). The GI50 [18] was > 10 µM (inactive), the GI50 [19] was > 10 µM (inactive) and the GI50 [21] was > 10 µM (inactive). The GI50 [22] was > 10 µM (inactive), the GI50 [23] was > 10 µM (inactive) and the GI50 [24] was > 10 µM (inactive). For the same compound, the GI50 [25] was > 10 µM (inactive), the GI50 [26] was > 10 µM (inactive) and the GI50 [27] was > 10 µM (inactive). For the same compound, the GI50 [28] was > 10 µM (inactive), the GI50 [29] was > 10 µM (inactive) and the GI50 [30] was > 10 µM (inactive). For the same compound, the GI50 [31] was > 10 µM (inactive), the GI50 [32] was > 10 µM (inactive) and the GI50 [33] was > 10 µM (inactive). For the same compound, the GI50 [34] was > 10 µM (inactive), the GI50 [35] was > 10 µM (inactive) and the GI50 [36] was > 10 µM (inactive). The GI50 [37] was > 10 µM (inactive), the GI50 [38] was > 10 µM (inactive) and the GI50 [39] was > 10 µM (inactive). The GI50 [40] was > 10 µM (inactive), the GI50 [58] was > 10 µM (inactive) and the GI50 [41] was > 10 µM (inactive). For the same compound, the GI50 [42] was > 10 µM (inactive), the GI50 [43] was > 10 µM (inactive) and the GI50 [44] was > 10 µM (inactive). For the same compound, the GI50 [45] was > 10 µM (inactive), the GI50 [46] was > 10 µM (inactive) and the GI50 [47] was > 10 µM (inactive). The GI50 [48] was > 10 µM (inactive), the GI50 [49] was > 10 µM (inactive) and the GI50 [50] was > 10 µM (inactive). For the same compound, the GI50 [52] was > 10 µM (inactive), the GI50 [53] was > 10 µM (inactive) and the GI50 [54] was > 10 µM (inactive). For the same compound, the GI50 [55] was > 10 µM (inactive), the GI50 [56] was > 10 µM (inactive) and the GI50 [57] was > 10 µM.

For `COc1ccc2nc(-c3cccc(N(C)C)c3)cc(O)c2c1`, the GI50 [1] was 0.413 µM (active), the GI50 [2] was 0.608 µM (active) and the GI50 [3] was 0.187 µM (active). For the same compound, the GI50 [4] was 0.327 µM (active), the GI50 [5] was 0.348 µM (active) and the GI50 [6] was > 10 µM (inactive). For the same compound, the GI50 [7] was 0.618 µM (active), the GI50 [8] was 1.15 µM (inactive) and the GI50 [9] was 0.255 µM (active). For the same compound, the GI50 [10] was 0.252 µM (active), the GI50 [11] was 0.0608 µM (active) and the GI50 [12] was 0.541 µM (active). The GI50 [13] was 0.451 µM (active), the GI50 [14] was 0.384 µM (active) and the GI50 [15] was 0.314 µM (active). For the same compound, the GI50 [17] was 0.334 µM (active), the GI50 [18] was 0.0726 µM (active) and the GI50 [19] was 0.553 µM (active). For the same compound, the GI50 [20] was 0.169 µM (active), the GI50 [21] was 0.353 µM (active) and the GI50 [22] was 0.337 µM (active). For the same compound, the GI50 [24] was 0.177 µM (active), the GI50 [25] was 0.111 µM (active) and the GI50 [26] was 0.211 µM (active). The GI50 [27] was 0.242 µM (active), the GI50 [28] was 0.204 µM (active) and the GI50 [29] was 0.485 µM (active). The GI50 [30] was 0.185 µM (active), the GI50 [31] was 0.147 µM (active) and the GI50 [32] was 0.188 µM (active). The GI50 [33] was 0.419 µM (active), the GI50 [34] was 0.198 µM (active) and the GI50 [35] was 0.101 µM (active). For the same compound, the GI50 [36] was 0.264 µM (active), the GI50 [37] was 0.344 µM (active) and the GI50 [38] was 0.594 µM (active). For the same compound, the GI50 [39] was 0.246 µM (active), the GI50 [40] was 4.74 µM (inactive) and the GI50 [58] was 0.151 µM (active). For the same compound, the GI50 [41] was 0.173 µM (active), the GI50 [42] was 0.362 µM (active) and the GI50 [43] was 1.55 µM (inactive). The GI50 [44] was 0.186 µM (active), the GI50 [45] was 5.64 µM (inactive) and the GI50 [46] was 0.142 µM (active). The GI50 [47] was 0.469 µM (active), the GI50 [48] was 0.327 µM (active) and the GI50 [49] was 0.198 µM (active). The GI50 [50] was 0.782 µM (active), the GI50 [51] was 0.247 µM (active) and the GI50 [52] was 0.266 µM (active). For the same compound, the GI50 [53] was 0.318 µM (active), the GI50 [54] was 0.299 µM (active) and the GI50 [55] was 0.378 µM (active). For the same compound, the GI50 [56] was 0.408 µM (active) and the GI50 [57] was 0.317 µM.
